Source: ChEMBL document CHEMBL4419178, “Yap1 inhibitors that target the interaction of yap1 with oct4” (2018)
Values belong to the compound of their own block, whether it stands above or below them. Activity calls are given as the source filed them. The rule behind the calls is not given here.

How the values were obtained:
NCI-H1650 [1] = experiment: Inhibition of self-renewal capacity in stem-like side-population cells of human NCI-H1650 cells assessed as reduction in number of spheres at 1 to 20 uM incubated for 10 days by sphere formation assay; format: functional, cell-based
NCI-H1650 [2] = experiment: Inhibition of YAP1 in human NCI-H1650 cells assessed as disruption in YAP1/TEAD2 interaction at 20 to 50 uM incubated for 48 hrs by proximity ligation assay; format: cell-based
[3] = target: Transcriptional coactivator YAP1 (Homo sapiens) (UniProt P46937); experiment: Inhibition of YAP1 in human NCI-H1650 cells assessed as disruption in YAP1/OCT4 interaction at 20 to 50 uM incubated for 48 hrs by proximity ligation assay; format: cell-based
Sequence of Transcriptional coactivator YAP1 (Homo sapiens) (P46937 whole entry): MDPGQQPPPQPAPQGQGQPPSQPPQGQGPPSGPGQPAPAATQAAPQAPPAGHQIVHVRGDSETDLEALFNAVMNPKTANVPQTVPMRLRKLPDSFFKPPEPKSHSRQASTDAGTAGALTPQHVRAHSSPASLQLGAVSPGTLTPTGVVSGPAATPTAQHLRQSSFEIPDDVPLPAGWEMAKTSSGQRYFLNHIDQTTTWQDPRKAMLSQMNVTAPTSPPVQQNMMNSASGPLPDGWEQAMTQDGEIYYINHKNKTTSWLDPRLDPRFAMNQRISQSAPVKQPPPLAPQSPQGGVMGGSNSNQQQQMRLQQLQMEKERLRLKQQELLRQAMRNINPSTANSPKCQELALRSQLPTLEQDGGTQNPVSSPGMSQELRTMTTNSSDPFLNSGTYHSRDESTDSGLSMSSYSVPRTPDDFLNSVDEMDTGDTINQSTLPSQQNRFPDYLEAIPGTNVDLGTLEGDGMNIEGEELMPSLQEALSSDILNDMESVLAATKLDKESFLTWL

NCI-H1650 [4] = experiment: Cytotoxicity in human NCI-H1650 cells assessed as induction of cell killing in presence of cancer associated fibroblasts at 20 to 50 uM incubated for 24 to 48 hrs by cytotracker-red/green dye staining based immunofluorescence microscopy; format: functional
[5] = target: Transcriptional coactivator YAP1 (Homo sapiens) (UniProt P46937); experiment: Inhibition of YAP1 in human A549 cells assessed as disruption in YAP1/OCT4 co-localization at 25 uM incubated for 48 hrs by double immunofluorescence based assay; format: cell-based
NCI-H1650 [6] = experiment: Inhibition of self-renewal capacity in stem-like side-population cells of human NCI-H1650 cells assessed as reduction in number of spheres at 50 uM incubated for 10 days by sphere formation assay; format: functional, cell-based
[7] = Cytotoxicity in human cancer associated fibroblasts at 20 to 50 uM incubated for 24 to 48 hrs by cytotracker-red/green dye staining based immunofluorescence microscopy
[8] = target: Transcriptional coactivator YAP1 (Homo sapiens) (UniProt P46937); experiment: Inhibition of YAP1 (unknown origin) assessed as disruption in YAP1/OCT4 interaction at 50 uM by cell based assay
[9] = target: Transcriptional coactivator YAP1 (Homo sapiens) (UniProt P46937); experiment: Inhibition of YAP1 (unknown origin) assessed as disruption in YAP1/OCT4 interaction at 5 uM by ELISA relative to control
NCI-H146 [10] = experiment: Inhibition of self-renewal capacity in methotrexate insensitive stem-like side-population cells of human NCI-H146 cells assessed as reduction in number of spheres at 2 uM incubated for 3 days after 7 days methotrexate exposure by sphere formation assay; format: functional
NCI-H1650 [11] = experiment: Inhibition of self-renewal capacity in stem-like side-population cells of human NCI-H1650 cells assessed as reduction in number of spheres at 5 to 50 uM incubated for 10 days by sphere formation assay; format: functional, cell-based
[12] = target: Transcriptional coactivator YAP1 (Homo sapiens) (UniProt P46937); experiment: Inhibition of YAP1 (unknown origin) assessed as disruption in YAP1/OCT4 interaction at 10 uM by ELISA relative to control
[13] = target: Transcriptional coactivator YAP1 (Homo sapiens) (UniProt P46937); experiment: Inhibition of YAP1 in human NCI-H1703 cells assessed as suppression of vimentin mRNA expression at 5 to 10 uM incubated for 72 hrs by RT-PCR method; format: cell-based
NCI-H1703 [14] = experiment: Effect on expression of Nanog mRNA expression in human NCI-H1703 cells at 5 to 10 uM incubated for 72 hrs by RT-PCR method; format: cell-based; conditions: nci-h1703, 72 h
[15] = target: Transcriptional coactivator YAP1 (Homo sapiens) (UniProt P46937); experiment: Inhibition of YAP1 in human NCI-H1650 cells assessed as suppression of fibronectin mRNA expression at 5 to 10 uM incubated for 72 hrs by RT-PCR method; format: cell-based
[16] = target: Transcriptional coactivator YAP1 (Homo sapiens) (UniProt P46937); experiment: Inhibition of YAP1 in human NCI-H146 cells assessed as suppression of Sox2 mRNA expression at 5 to 10 uM incubated for 72 hrs by RT-PCR method; format: cell-based
[17] = target: Transcriptional coactivator YAP1 (Homo sapiens) (UniProt P46937); experiment: Inhibition of YAP1 in human NCI-H146 cells assessed as suppression of PDK2 mRNA expression at 5 to 10 uM incubated for 72 hrs by RT-PCR method; format: cell-based
[18] = target: Transcriptional coactivator YAP1 (Homo sapiens) (UniProt P46937); experiment: Inhibition of YAP1 in human NCI-H1650 cells assessed as suppression of Sox2 mRNA expression at 5 to 10 uM incubated for 72 hrs by RT-PCR method; format: cell-based
NCI-H1703 [19] = experiment: Inhibition of adherence-independent cell growth in human NCI-H1703 cells at 5 uM incubated for 33 days; format: functional, cell-based
NCI-H1975 = experiment: Cytotoxicity in gefitinib and erlotinib resistant human NCI-H1975 cells assessed as reduction in cell viability at 1 to 10 uM incubated for 72 hrs by MTT assay; format: functional, cell-based
NCI-H1703 [20] = experiment: Effect on expression of Oct4 mRNA expression in human NCI-H1703 cells at 5 to 10 uM incubated for 72 hrs by RT-PCR method; format: cell-based; conditions: nci-h1703, 72 h
[21] = target: Transcriptional coactivator YAP1 (Homo sapiens) (UniProt P46937); experiment: Inhibition of YAP1 in human NCI-H1650 cells assessed as suppression of PD-L1 mRNA expression at 5 to 10 uM incubated for 72 hrs by RT-PCR method; format: cell-based
[22] = target: Transcriptional coactivator YAP1 (Homo sapiens) (UniProt P46937); experiment: Inhibition of YAP1 in human NCI-H1703 cells assessed as suppression of PDK2 mRNA expression at 5 to 10 uM incubated for 72 hrs by RT-PCR method; format: cell-based
[23] = target: Transcriptional coactivator YAP1 (Homo sapiens) (UniProt P46937); experiment: Inhibition of YAP1 in human NCI-H146 cells assessed as suppression of HK2 mRNA expression at 5 to 10 uM incubated for 72 hrs by RT-PCR method; format: cell-based
[24] = target: Transcriptional coactivator YAP1 (Homo sapiens) (UniProt P46937); experiment: Inhibition of YAP1 in human NCI-H1703 cells assessed as suppression of PD-L1 mRNA expression at 5 to 10 uM incubated for 72 hrs by RT-PCR method; format: cell-based
NCI-H1703 [25] = experiment: Inhibition of YAP1/TEAD2 interaction in human NCI-H1703 cells assessed as suppression of CTGF mRNA expression at 5 to 10 uM incubated for 72 hrs by RT-PCR method; format: cell-based
[26] = target: Transcriptional coactivator YAP1 (Homo sapiens) (UniProt P46937); experiment: Inhibition of YAP1 in human NCI-H1703 cells assessed as suppression of Sox2 mRNA expression at 5 to 10 uM incubated for 72 hrs by RT-PCR method; format: cell-based
NCI-H1650 [27] = experiment: Effect on expression of Nanog mRNA expression in human NCI-H1650 cells at 5 to 10 uM incubated for 72 hrs by RT-PCR method; format: cell-based; conditions: nci-h1650, 72 h
NCI-H1650 [28] = experiment: Inhibition of adherence-independent cell growth in human NCI-H1650 cells at 10 uM incubated for 33 days; format: functional, cell-based
[29] = target: Transcriptional coactivator YAP1 (Homo sapiens) (UniProt P46937); experiment: Inhibition of YAP1 in human NCI-H1650 cells assessed as suppression of PDK2 mRNA expression at 5 to 10 uM incubated for 72 hrs by RT-PCR method; format: cell-based
[30] = target: Transcriptional coactivator YAP1 (Homo sapiens) (UniProt P46937); experiment: Inhibition of YAP1 in human NCI-H1703 cells assessed as suppression of HK2 mRNA expression at 5 to 10 uM incubated for 72 hrs by RT-PCR method; format: cell-based
NCI-H1650 [31] = experiment: Inhibition of adherence-independent cell growth in human NCI-H1650 cells at 5 uM incubated for 33 days; format: functional, cell-based
NCI-H1650 [32] = experiment: Inhibition of YAP1/TEAD2 interaction in human NCI-H1650 cells assessed as suppression of CTGF mRNA expression at 5 to 10 uM incubated for 72 hrs by RT-PCR method; format: cell-based
NCI-H146 [33] = experiment: Effect on expression of Nanog mRNA expression in human NCI-H146 cells at 5 to 10 uM incubated for 72 hrs by RT-PCR method; format: cell-based; conditions: nci-h146, 72 h
NCI-H146 [34] = experiment: Effect on expression of Oct4 mRNA expression in human NCI-H146 cells at 5 to 10 uM incubated for 72 hrs by RT-PCR method; format: cell-based; conditions: nci-h146, 72 h
[35] = target: Transcriptional coactivator YAP1 (Homo sapiens) (UniProt P46937); experiment: Inhibition of YAP1 in human NCI-H1650 cells assessed as suppression of HK2 mRNA expression at 5 to 10 uM incubated for 72 hrs by RT-PCR method; format: cell-based
NCI-H1650 [36] = experiment: Effect on expression of Oct4 mRNA expression in human NCI-H1650 cells at 5 to 10 uM incubated for 72 hrs by RT-PCR method; format: cell-based; conditions: nci-h1650, 72 h
[37] = target: Transcriptional coactivator YAP1 (Homo sapiens) (UniProt P46937); experiment: Inhibition of YAP1 in human NCI-H1650 cells assessed as suppression of vimentin mRNA expression at 5 to 10 uM incubated for 72 hrs by RT-PCR method; format: cell-based
[38] = target: Transcriptional coactivator YAP1 (Homo sapiens) (UniProt P46937); experiment: Inhibition of YAP1 in human NCI-H1703 cells assessed as suppression of fibronectin mRNA expression at 5 to 10 uM incubated for 72 hrs by RT-PCR method; format: cell-based
NCI-H1703 [39] = experiment: Inhibition of adherence-independent cell growth in human NCI-H1703 cells at 10 uM incubated for 33 days; format: functional, cell-based

Compound: CCOc1ccc(CCC(=O)N2CCC(CC(=O)N[C@@H](Cc3ccc(OCc4ccccc4)cc3)C(=O)OC)CC2)cc1
- inhibition (NCI-H1650 [1]): Active

- inhibition [3]: Active
- inhibition [5]: Active
Compound: COCCn1c2nc(=O)n(-c3ccccc3)c(=O)c-2nc2ccccc21
- inhibition (NCI-H1650 [2]): Active
- Activity (NCI-H1650 [4]): Active
- inhibition (NCI-H1650 [6]): Active
- inhibition (NCI-H1650 [1]): Active
- Activity [7]: Non-Toxic

- inhibition [8]: 71%
- inhibition [9]: 75%
Compound: CC(C)(C)OC(=O)N1CCC(CC(=O)N[C@@H](Cc2ccc(OCc3ccccc3)cc2)C(=O)NC2CCCCC2)CC1

Compound: NC(=O)[C@H](Cc1ccc(OCc2ccccc2)cc1)NC(=O)CC1CCN(C(=O)CCc2ccccc2)CC1
- inhibition (NCI-H146 [10]): Active

- inhibition [8]: 70%
- inhibition [9]: 90%
Compound: O=C(CC1CCN(C(=O)CCc2ccccc2)CC1)N[C@@H](Cc1ccc(OCc2ccccc2)cc1)C(=O)NC1CCCCC1

- inhibition [8]: > 84%
- inhibition [9]: 95%
Compound: O=C(CC1CCN(C(=O)CCc2ccccc2)CC1)N[C@@H](Cc1ccc(OCc2ccccc2)cc1)C(=O)NCC1CC1

- inhibition [5]: Active
Compound: O=[N+]([O-])c1[nH]cnc1/C=C/c1ccccc1
- Activity (NCI-H1650 [4]): Active
- inhibition (NCI-H1650 [11]): Active
- inhibition (NCI-H1650 [6]): Active
- Activity [7]: Non-Toxic

- inhibition [12]: 90%
- inhibition [8]: > 73%
- inhibition [9]: 90%
Compound: O=C(CC1CCN(C(=O)CCc2ccccc2)CC1)N[C@@H](Cc1ccc(OCc2ccccc2)cc1)C(=O)NC1CC1

Compound: CCOC(=O)/C(C#N)=C/c1c[nH]c2ccccc12
- inhibition (NCI-H1650 [6]): Active

- inhibition [8]: > 77%
- inhibition [9]: 97%
Compound: COC(=O)[C@H](Cc1ccc(O)cc1)NC(=O)CC1CCN(C(=O)CCc2ccccc2)CC1

Compound: COC(=O)[C@H](Cc1ccc(OCc2ccccc2)cc1)NC(=O)CC1CCN(C(=O)CC(c2ccccc2)c2ccccc2)CC1
- inhibition (NCI-H1650 [1]): Active

- inhibition [3]: Active
Compound: CCOc1ccc(CCC(=O)N2CCC(CC(=O)N[C@@H](Cc3ccc(OCc4ccccc4)cc3)C(=O)O)CC2)cc1
- inhibition (NCI-H1650 [2]): Active

Compound: O=C(CC1CCN(C(=O)CCc2cccc(F)c2)CC1)N[C@@H](Cc1ccc(OCc2ccccc2)cc1)C(=O)O
- inhibition (NCI-H1650 [11]): Active

- inhibition [13]: Active
- inhibition [15]: Active
- inhibition [16]: Active
- inhibition [17]: Active
- inhibition [18]: Active
- inhibition [21]: Active
- inhibition [22]: Active
- inhibition [23]: Active
- inhibition [24]: Active
- inhibition [26]: Active
- inhibition [29]: Active
- inhibition [30]: Active
- inhibition [35]: Active
- inhibition [37]: Active
- inhibition [38]: Active
Compound: O=[N+]([O-])c1nc[nH]c1/C=C/c1cccc(F)c1
- Activity (NCI-H1703 [14]): Non-Toxic
- inhibition (NCI-H146 [10]): Active
- inhibition (NCI-H1703 [19]): Active
- Activity (NCI-H1975): Active
- Activity (NCI-H1703 [20]): Non-Toxic
- inhibition (NCI-H1703 [25]): inactive
- Activity (NCI-H1650 [27]): Non-Toxic
- inhibition (NCI-H1650 [28]): Active
- inhibition (NCI-H1650 [31]): Active
- inhibition (NCI-H1650 [32]): inactive
- Activity (NCI-H146 [33]): Non-Toxic
- Activity (NCI-H146 [34]): Non-Toxic
- Activity (NCI-H1650 [36]): Non-Toxic
- inhibition (NCI-H1703 [39]): Active
